The record followed here is patent publication US20220378923A1, “BET DEGRADER” (KYOWA KIRIN CO., LTD., priority 2019, published 2022).

Read-outs that look alike come from different tables or passages of the source.

The subject of test [1] is SU-DHL-4 cells. As to the kind of experiment: Inhibitory effect on cell viability in SU-DHL-4 cell line (Test Example 1). It counts as cell-based, human. The conditions noted are these: SU-DHL-4 cells, 72 hours, Cell Counting Kit-8, concentration showing 90% inhibition of cell viability, read-out: SU-DHL-4 Cell Viability Inhibition Rate IC90. In a few lines: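 SU-DHL-4 cells were grown at 37° C. under 5% CO2 in RPMI1640 with 10 vol % heat-inactivated FBS plus penicillin/streptomycin, seeded and precultured for 18 to 25 hours, then exposed to test compound at 0.1 vol % DMSO for 72 hours. Viability was read with Cell Counting Kit-8 by absorbance at 450 nm.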

Test [2] has as its system MYC mRNA expression in SU-DHL-4 cells. Nature of the test: Suppressive effect on MYC mRNA expression (Test Example 2). It counts as cell-based, human. The conditions noted are these: test compound 100 nmol/L, 6 hours, qRT-PCR corrected by ACTB, GAPDH; for inhibition at 0.1 µM: Homo sapiens, HPRT1, read-out: Suppression Rate of MYC mRNA Expression (%). The method, then: The cells were passaged twice a week at a volume of 20-40 mL so as to maintain a cell concentration of 1×10^6 cells/mL or less. The cultured SU-DHL-4 cells were seeded at 6×10^5 cells/well in a transparent 6-well plate (Code No. 140675, Thermo Fisher Scientific). After seeding, the cells were precultured at 37° C. in a carbon dioxide gas incubator for 18 to 25 hours. […] At this time, the final concentration of DMSO was adjusted to be 0.1 vol %. After adding the test compound, the cells were cultured at 37° C. in a carbon dioxide gas incubator for 6 hours. Then, the cells were collected by centrifugation and used for extraction of mRNA. mRNA extraction from cells was performed using Maxwell® 16 LEV simplyRNA Purification Kits (Code No. AS1270, Promega). The mRNA recovery protocol was performed according to the manufacturer's recommended protocol attached to the kit. […] The cDNA conversion was performed, according to the manufacturer's recommended protocol attached to the kit, in 0.020 mL of the reaction solution, and GeneAmp® PCR System 9700 (Applied Biosystems) was used. The cDNA-converted sample was diluted 10-fold by adding 0.180 mL of RNase Free Water (Code No. 10977-023, Thermo Fisher Scientific) and used for quantitative real-time polymerase chain reaction (qRT-PCR). For the calibration curve of qRT-PCR, 0.08 mL of RNase Free Water was added to a cDNA sample using DMSO as a test compound for 5-fold dilution. Further, two 5-fold dilutions were prepared stepwise, and these three samples were used as the calibration curve samples. The following reagents were used for qRT-PCR: TaqMan Gene Expression Assays, Inventoried (Primer probe: Code No. 4331182, Thermo Fisher Scientific, Assay ID: (i) MYC: Hs00153408_m1, (ii) ACTB: Hs01060665_g1, (iii) GAPDH: Hs04420697_g1, (iv) HPRT1: […] Universal PCR Master Mix, no AmpEraseR UNG (Master Mix: Code No. 4367846, Thermo Fisher Scientific). Primer probe (0.001 mL), Master Mix (0.010 mL), water (0.004 mL) and the diluted cDNA sample (0.005 mL) were mixed, and qRT-PCR analysis was performed. For qRT-PCR analysis, QuantStudio 7 Flex (Thermo Fisher Scientific) or 7500 Fast Real-Time PCR (Applied Biosystems) was used to measure in Fast mode and analyze. […] Corrected MYC expression=A/B • A: MYC expression level • B: Geometric mean of expression levels of ACTB, GAPDH and HPRT1 Using the corrected values, the suppression rate of MYC expression for the wells to which the test compound was not added was calculated by the following formula. […] Corrected MYC expression level in a well containing test compound • D: Corrected MYC expression level in a well to which test compound was not added
On the technique in general: Real-time PCR tracks product formation cycle by cycle.

In general, IC90 refers to the point of the concentration-response curve where the effect stands at 90%. With `CCC(=O)N1c2ccccc2[C@H](Nc2ccc(CCC(=O)NCC3(NC4CCC(N[C@@H]5C[C@H](C)N(C(=O)CC)c6ccccc65)CC4)COC3)cc2)C[C@@H]1C` (stereo partly shown) [Compound 7h], the IC90 in test [1] is 5.47 nM. Also, in test [2] (HPRT1), the “Suppression Rate of MYC mRNA Expression (%)” value came to 97.5%.

In the case of `CCC(=O)N1c2ccccc2[C@H](Nc2ccc(NC(=O)[C@H](C)NC(=O)c3ccc(N[C@@H]4C[C@H](C)N(C(=O)CC)c5ccccc54)cc3)cc2)C[C@@H]1C` (relative stereo) [Compound 2d, 4-{[(2S,4R)-2-Methyl-1-propionyl-1,2,3,4-tetrahydroquinolin-4-yl]amino}-N-{(S)-1-[(4-{[(2S*,4R*)-2-methyl-1-propionyl-1,2,3,4-tetrahydroquinolin-4-yl]amino}phenyl)amino]-1-oxopropan-2-yl}benzamide], in test [2], the inhibition at 0.1 µM was determined as 80%. On the same count and under the same terms, for `CCC(=O)N1c2ccccc2[C@H](Nc2ccc(NC(=O)CNC(=O)C(F)=C3CCC(N[C@@H]4C[C@H](C)N(C(=O)CC)c5ccccc54)CC3)cc2)C[C@@H]1C` (relative stereo) [Compound 15k, 2-Fluoro-2-(4-(((2S*,4R*)-2-methyl-1-propionyl-1,2,3,4-tetrahydroquinolin-4-yl)amino)cyclohexylidene)-N-(2-((4-(((2S,4R)-2-methyl-1-propionyl-1,2,3,4-tetrahydroquinolin-4-yl)amino)phenyl)amino)-2-oxoethyl)acetamide] the value was 97.4%.

In the case of `CCC(=O)N1c2ccccc2[C@H](Nc2ccc(NC(=O)N3CC(NC(=O)C4CCC(N[C@@H]5C[C@H](C)N(C(=O)CC)c6ccccc65)CC4)C3)cc2)C[C@@H]1C` (stereo partly drawn) [Compound 7a, 3-((1R,4r)-4-(((2S,4R)-2-Methyl-1-propionyl-1,2,3,4-tetrahydroquinolin-4-yl)amino)cyclohexane-1-carboxamide)-N-(4-(((2S,4R)-2-methyl-1-propionyl-1,2,3,4-tetrahydroquinolin-4-yl)amino)phenyl)azetidine-1-carboxamide], in test [1], the 90% effect concentration (IC90) was determined as 10.8 nM.

Regarding `CCC(=O)N1c2ccccc2[C@H](Nc2ccc(C(=O)NCCCNC(=O)c3ccc(C4=N[C@@H](CC(=O)N5CCN(CCO)CC5)c5nnc(C)n5-c5sc(C)c(C)c54)cc3)cc2)C[C@@H]1C` [Compound 13f, 4-((S)-6-(2-(4-(2-Hydroxyethyl)piperazin-1-yl)-2-oxoethyl)-2,3,9-trimethyl-6H-thieno[3,2-f][1,2,4]triazolo[4,3-a][1,4]diazepin-4-yl)-N-(3-(4-(((2S,4R)-2-methyl-1-propionyl-1,2,3,4-tetrahydroquinolin-4-yl)amino)benzamide)propyl)benzamide], the IC90 in test [1] was 11.6 nM.

For `CCC(=O)N1c2ccccc2[C@H](Nc2ccc(C(=O)NCc3nnc(C4CCN(Cc5cc(O)cc(-c6c(C)noc6C)c5)CC4)o3)cc2)C[C@@H]1C` [Compound 17m, N-((5-(1-(3-(3,5-Dimethylisoxazol-4-yl)-5-hydroxybenzyl)piperidin-4-yl)-1,3,4-oxadiazol-2-yl)methyl)-4-(((2S,4R)-2-methyl-1-propionyl-1,2,3,4-tetrahydroquinolin-4-yl)amino)benzamide], the IC90 in test [1] (Homo sapiens) was 74.1 nM.

Take `CCC(=O)N1c2ccccc2[C@H](Nc2ccc(C(=O)NCC(=O)CNC(=O)C3CCC(N[C@@H]4C[C@H](C)N(C(=O)CC)c5ccccc54)CC3)cc2)C[C@@H]1C` (relative stereo) [Compound 7r, 4-(((2S,4R)-2-Methyl-1-propionyl-1,2,3,4-tetrahydroquinolin-4-yl)amino)-N-(3-((1R,4r)-4-(((2S*,4R*)-2-methyl-1-propionyl-1,2,3,4-tetrahydroquinolin-4-yl)amino)cyclohexane-1-carboxamide)-2-oxopropyl)benzamide]: the 90% effect concentration (IC90) in test [1] worked out at 0.38 nM. Take `CCC(=O)N1c2ccccc2[C@H](Nc2ccc(NC(=O)CNC(=O)NC3CCN(Cc4cc(O)cc(-c5c(C)noc5C)c4)CC3)cc2)C[C@@H]1C` [Compound 17k, 2-(3-(1-(3-(3,5-Dimethylisoxazol-4-yl)-5-hydroxybenzyl)piperidin-4-yl)ureido)-N-(4-(((2S,4R)-2-methyl-1-propionyl-1,2,3,4-tetrahydroquinolin-4-yl)amino)phenyl)acetamide]: the 90% effect concentration (IC90) in test [1] (Homo sapiens) is 43.7 nM. Turning to `CCC(=O)N1c2ccccc2[C@H](Nc2ccc(C(=O)NCC(=O)CNC(=O)c3ccc(C4=NCc5nnc(C)n5-c5sc(C)c(C)c54)cc3)cc2)C[C@@H]1C` [Compound 14l, 4-(((2S,4R)-2-Methyl-1-propionyl-1,2,3,4-tetrahydroquinolin-4-yl)amino)-N-(2-oxo-3-(4-(2,3,9-trimethyl-6H-thieno[3,2-f][1,2,4]triazolo[4,3-a][1,4]diazepin-4-yl)benzamide)propyl)benzamide], the 90% effect concentration (IC90) in test [1] came to 0.6 nM.
